Assay results reported in patent publication US8119697B2 (Yissum Research Development Company of the Hebrew …, priority 2002, dated 2012).

What was measured:
[1] = test system: lithium-induced nausea (conditioned rejection reactions); assay: Taste Reactivity (TR) test: lithium-induced conditioned rejection reactions to saccharin solution; type: in vivo, rats; settings: for establishment of conditioned rejection reactions: pretreatment 5 mg/kg ip 30 min prior to conditioning trial (saccharin-lithium pairing), versus vehicle pretreatment
Procedure: [drawing 3] • In Experiment 1 were used 29 male rats and in Experiment 2 were used 24 male Sprague-Dawley rats (Charles River Labs, St. Constant, Quebec), which weighed 290-350 gm on the conditioning day. They were individually housed in stainless steel hanging cages in a colony room kept at 21° C. on a 12:12 hr light:dark schedule with the lights on at 07.00 h. Throughout the experiment, the rats were maintained on ad-lib Purina Rat Chow and water. The procedures were approved by the Wilfrid Laurier University Animal Care Committee according to the guidelines of the Canadian Council on Animal Care. • b. The rats were surgically implanted with intra-oral cannulae as described by Parker, L. A. Learn Motiv., 13, 281-303 (1982). The surgical anesthesia preparation included administration of 0.4 mg/kg atropine solution i.p. 15 min prior to ketamine (75 mg/kg, i.p.) combined with xylazine (10 mg/kg, i.p.) which was dissolved in sterile water and administered at a volume of 1 ml/kg. On each of three subsequent days during recovery from surgery, the cannulae were flushed with a chlorhexidine rinse (Novlosan; 0.1% chlorhexidine) to prevent infection. • c. […] The rats were randomly assigned to independent groups on the basis of the pretreatment drug and the conditioning drug. In Experiment 1, the groups were as follows: CBD-lithium (n=8), CBD-saline (n=6), Vehicle-lithium (n=8), Vehicle-saline (n=7). In Experiment 2, the groups were as follows: CBD-DMH-lithium (n=6), CBD-DMH-saline (n=6), Vehicle-lithium (n=6), Vehicle-saline (n=6). […] The order of the test trials was counterbalanced among the rats in each group. • d. […] On this trial, the water bottles were replaced with tubes containing the saccharin solution and the amounts consumed over a 6 hr period of drinking were recorded. • i. Taste reactivity scoring: A rater blind to the experimental conditions scored the videotapes on two occasions in slow motion (⅕ speed) using the Observer (Noldus, NL) event-recording program on a PC computer. […]

[2] = test system: conditioned taste avoidance; assay: Consumption test of lithium-paired saccharin solution (conditioned taste avoidance); type: in vivo; settings: pretreatment 5 mg/kg prior to conditioning; 6 hr consumption test on day following final TR test, non-deprived rats
Procedure: [drawing 3] • In Experiment 1 were used 29 male rats and in Experiment 2 were used 24 male Sprague-Dawley rats (Charles River Labs, St. Constant, Quebec), which weighed 290-350 gm on the conditioning day. They were individually housed in stainless steel hanging cages in a colony room kept at 21° C. on a 12:12 hr light:dark schedule with the lights on at 07.00 h. Throughout the experiment, the rats were maintained on ad-lib Purina Rat Chow and water. The procedures were approved by the Wilfrid Laurier University Animal Care Committee according to the guidelines of the Canadian Council on Animal Care. • b. The rats were surgically implanted with intra-oral cannulae as described by Parker, L. A. Learn Motiv., 13, 281-303 (1982). The surgical anesthesia preparation included administration of 0.4 mg/kg atropine solution i.p. 15 min prior to ketamine (75 mg/kg, i.p.) combined with xylazine (10 mg/kg, i.p.) which was dissolved in sterile water and administered at a volume of 1 ml/kg. […] On this trial, the water bottles were replaced with tubes containing the saccharin solution and the amounts consumed over a 6 hr period of drinking were recorded. • i. Taste reactivity scoring: A rater blind to the experimental conditions scored the videotapes on two occasions in slow motion (⅕ speed) using the Observer (Noldus, NL) event-recording program on a PC computer. […]

CB1 receptor = CB1 receptor (Homo sapiens, UniProt P21554); settings: cited from earlier work
Sequence of CB1 receptor (P21554 whole entry): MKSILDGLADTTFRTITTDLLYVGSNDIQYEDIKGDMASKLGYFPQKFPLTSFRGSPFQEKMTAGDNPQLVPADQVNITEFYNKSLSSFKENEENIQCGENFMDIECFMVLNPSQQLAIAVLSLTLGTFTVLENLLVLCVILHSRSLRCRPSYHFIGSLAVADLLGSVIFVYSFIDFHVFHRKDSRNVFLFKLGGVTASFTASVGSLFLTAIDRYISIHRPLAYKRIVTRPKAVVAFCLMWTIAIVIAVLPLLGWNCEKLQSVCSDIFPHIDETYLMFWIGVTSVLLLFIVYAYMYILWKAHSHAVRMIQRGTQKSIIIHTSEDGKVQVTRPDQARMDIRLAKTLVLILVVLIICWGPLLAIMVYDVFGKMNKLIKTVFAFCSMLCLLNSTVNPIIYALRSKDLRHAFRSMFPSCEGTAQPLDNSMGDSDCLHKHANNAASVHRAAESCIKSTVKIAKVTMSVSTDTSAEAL

[3] = test system: lithium-induced nausea (conditioned rejection reactions); settings: previously reported, rats; cited from earlier work
[4] = test system: conditioned taste avoidance; settings: previously reported, as pretreatment agent; cited from earlier work

| Compound | expression of previously established conditioned rejection reactions ([1]; 5 mg/kg ip 30 min prior to TR test trial, lithium-conditioned male Sprague-Dawley rats, versus vehicle test trial) | establishment of conditioned rejection reactions [1] | strength of avoidance response (ml saccharin solution consumed) [2] | affinity for the CB1 receptor (CB1 receptor) | establishment and expression of conditioned rejection reactions [3] | establishment of conditioned taste avoidance in a consumption test [4] |
| --- | --- | --- | --- | --- | --- | --- |
| C=C(C)[C@@H]1CCC(C)=C[C@H]1c1c(O)cc(CCCCC)cc1O [CBD, cannabidiol] | attenuated the expression of previously established conditioned rejection reactions | attenuated the establishment of conditioned rejection reactions | did not modulate the strength of the avoidance response | – | – | – |
| C=C(C)C1CCC(C)=CC1c1c(O)cc(C(C)(C)CCCCCC)cc1O (stereo not drawn) [CBD-DMH, cannabidiol-dimethyl heptyl] | – | interfered with the establishment of conditioned rejection reactions | did not modulate the strength of the avoidance response | relatively weak affinity | – | – |
| CCCCCc1cc(O)c2c(c1)OC(C)(C)[C@@H]1CCC(C)=C[C@@H]21 [THC] | – | – | – | – | interfered with the establishment and the expression of conditioned rejection reactions | – |
| Cc1nccn1CC1CCc2c(c3ccccc3n2C)C1=O (stereo not drawn) [ondansetron] | – | – | – | – | interfered with the establishment and the expression of conditioned rejection reactions | did not interfere with the establishment of conditioned taste avoidance |
